The record followed here is US20070037828A1, “Pyrazolopyrimidines” (priority 2003, published 2007).

Molecules are shown by their SMILES.

The nature of the first data set: logP determination through HPLC (EEC directive 79/831 Annex V. A8). It is filed as physicochemical.
Conditions: not given
As a reminder, the logP is a log measure of how a compound divides between an organic and an aqueous phase. Low readings indicate a more hydrophilic compound, high ones a more lipophilic compound. For `CC(Nc1c(-c2cc(Cl)sc2Cl)c(Cl)nc2c(C#N)cnn12)C(F)(F)F` (single isomer, unassigned) [Example 31], the logP is reported as 4.46. The same measure, in the same setting: the figure for `CC(Nc1c(-c2ncncc2Cl)c(Cl)nc2c(C=O)cnn12)C(F)(F)F` (single isomer, unassigned) [Example 55] is 2.46. Same read-out and setting: the figure for `CC(Nc1c(-c2ncncc2Cl)c(Cl)nc2c(C#N)cnn12)C(C)(C)C` (stereo not shown) [Example 3] is 3.54; for `CC(C)C(C)Nc1c(-c2ncncc2Cl)c(Cl)nc2c(C#N)cnn12` (stereo not shown) [Example 4] it is 3.13; for `CC(Nc1c(-c2ncncc2Cl)c(Cl)nc2c(Cl)cnn12)C(C)(C)C` (stereo not shown) [Example 5] it is 4.36.

Regarding `CC(C)CNc1c(-c2cc(Cl)sc2Cl)c(Cl)nc2c(C#N)cnn12` [Example 9], the logP is 4.82. Same read-out and setting: to `CCC(C)Nc1c(-c2cc(Cl)sc2Cl)c(Cl)nc2c(C#N)cnn12` (stereo not shown) [Example 10] belongs 4.82; to `CC(C)Nc1c(-c2cc(Cl)sc2Cl)c(Cl)nc2c(C#N)cnn12` [Example 11], 4.41. Same read-out and setting: the figure for `CC(C)CN(C)c1c(-c2cc(Cl)sc2Cl)c(Cl)nc2c(C#N)cnn12` [Example 12] is 5.31; for `CC(C)(C)CNc1c(-c2cc(Cl)sc2Cl)c(Cl)nc2c(C#N)cnn12` [Example 15] it is 5.31.

`COCCNc1c(-c2cc(Cl)sc2Cl)c(Cl)nc2c(C#N)cnn12` [Example 17] had a logP of 3.90. The same measure, in the same setting: the figure for `COCCN(C)c1c(-c2cc(Cl)sc2Cl)c(Cl)nc2c(C#N)cnn12` [Example 18] is 4.32; for `CN(CCC#N)c1c(-c2cc(Cl)sc2Cl)c(Cl)nc2c(C#N)cnn12` [Example 19] it is 3.90; for `CCCN(CC1CC1)c1c(-c2cc(Cl)sc2Cl)c(Cl)nc2c(C#N)cnn12` [Example 20] it is 5.78. On the same count and under the same terms, to `N#Cc1cnn2c(N3CCCC3)c(-c3cc(Cl)sc3Cl)c(Cl)nc12` [Example 21] belongs 4.61. Same read-out and setting: to `N#Cc1cnn2c(N3CCCCC3)c(-c3cc(Cl)sc3Cl)c(Cl)nc12` [Example 23] belongs 6.19. The compound `CC(C)C(C)Nc1c(-c2cc(Cl)sc2Cl)c(Cl)nc2c(C#N)cnn12` (stereo not shown) [Example 24] displayed a logP of 5.19. The same measure, in the same setting: to `CC1CN(c2c(-c3cc(Cl)sc3Cl)c(Cl)nc3c(C#N)cnn23)CC(C)O1` (stereo not shown) [Example 27] belongs 4.72; to `N#Cc1cnn2c(N3CCOCC3)c(-c3cc(Cl)sc3Cl)c(Cl)nc12` [Example 28], 3.85.

Consider `CC(C)CC(C)Nc1c(-c2cc(Cl)sc2Cl)c(Cl)nc2c(C#N)cnn12` (stereo not shown) [Example 29], for which the logP was found to be 5.59.

Compound `N#Cc1cnn2c(NCC(F)(F)F)c(-c3cc(Cl)sc3Cl)c(Cl)nc12` [Example 30] returned a logP of 4.06. Same read-out and setting: to `N#Cc1cnn2c(N3CCC(F)(F)CC3)c(-c3ccsc3)c(Cl)nc12` [Example 36] belongs 3.61. `N#Cc1cnn2c(N3CCC(C(F)(F)F)CC3)c(-c3ccsc3)c(Cl)nc12` [Example 53]: the logP stood at 4.03. On the same count and under the same terms, to `CC1CCCN1c1c(-c2ncncc2Cl)c(Cl)nc2c(C=O)cnn12` (stereo not shown) [Example 54] belongs 2.44; to `CC(Nc1c(-c2ncncc2F)c(Cl)nc2c(C#N)cnn12)C(C)(C)C` (stereo not shown) [Example 56], 3.29; to `CC(C)C(C)Nc1c(-c2ncncc2F)c(Cl)nc2c(C#N)cnn12` (stereo not shown) [Example 57], 2.92. In turn, `CC(Nc1c(-c2ncncc2F)c(Cl)nc2c(C#N)cnn12)C(F)(F)F` (stereo not shown) [Example 58] displayed a logP of 2.65.

Turning to `CC(Nc1c(-c2ncncc2F)c(Cl)nc2c(Cl)cnn12)C(C)(C)C` (stereo not shown) [Example 59], the logP was 4.11. For the compound `CC(Nc1c(-c2ncncc2F)c(Cl)nc2ccnn12)C(C)(C)C` (stereo not shown) [Example 60], the logP is recorded as 3.42.

With `CC(C)C(C)Nc1c(-c2ncncc2F)c(Cl)nc2ccnn12` (stereo not shown) [Example 61], the logP was found to be 2.98. Still for that read-out and setting: to `CC(Nc1c(-c2ncncc2Cl)c(Cl)nc2c(C=O)cnn12)C(C)(C)C` (stereo not shown) [Example 62] belongs 3.12; to `CC1CCN(c2c(-c3ncncc3F)c(Cl)nc3c(C#N)cnn23)CC1` [Example 63], 3.20; to `COC(=O)c1cnn2c(NC(C)C(C)(C)C)c(-c3ncncc3F)c(Cl)nc12` (stereo not shown) [Example 64], 3.15.

Staying with this data set, now noted: HPLC, gradient method, acetonitrile/0.1% aqueous phosphoric acid.
In the case of `CC(C)CC(C)Nc1c(-c2ccsc2)c(Cl)nc2c(C#N)cnn12` (stereo not shown) [Example 6], the logP is reported as 4.46. Same read-out and setting: to `CC(Nc1c(-c2ccsc2)c(Cl)nc2c(C#N)cnn12)C(F)(F)F` (stereo not shown) [Example 7] belongs 3.53; to `N#Cc1cnn2c(NCC(F)(F)F)c(-c3ccsc3)c(Cl)nc12` [Example 8], 3.21; to `N#Cc1cnn2c(NC3CCCC3)c(-c3cc(Cl)sc3Cl)c(Cl)nc12` [Example 16], 5.03. The same measure, in the same setting: the figure for `CC(C)(C)CNc1c(-c2ccsc2)c(Cl)nc2c(C#N)cnn12` [Example 32] is 4.18; for `N#Cc1cnn2c(NC3CCCC3)c(-c3ccsc3)c(Cl)nc12` [Example 33] it is 3.00; for `CC(C)C(C)Nc1c(-c2ccsc2)c(Cl)nc2c(C#N)cnn12` (stereo not shown) [Example 34] it is 4.08. As for `CC(C)CNc1c(-c2ccsc2)c(Cl)nc2c(C#N)cnn12` [Example 37], the logP is on record as 3.78. Still for that read-out and setting: to `CCC(C)Nc1c(-c2ccsc2)c(Cl)nc2c(C#N)cnn12` (stereo not shown) [Example 38] belongs 3.74. Still for that read-out and setting: to `CC(C)Nc1c(-c2ccsc2)c(Cl)nc2c(C#N)cnn12` [Example 39] belongs 3.37. On the same count and under the same terms, to `CC(C)CN(C)c1c(-c2ccsc2)c(Cl)nc2c(C#N)cnn12` [Example 40] belongs 4.13; to `N#Cc1cnn2c(N3CCCC3)c(-c3ccsc3)c(Cl)nc12` [Example 41], 3.53. `CC1CCCCN1c1c(-c2ccsc2)c(Cl)nc2c(C#N)cnn12` (stereo not shown) [Example 42] yielded a logP of 4.27. The same measure, in the same setting: the figure for `CC1CCN(c2c(-c3ccsc3)c(Cl)nc3c(C#N)cnn23)CC1` [Example 43] is 4.41; for `N#Cc1cnn2c(N3CCOCC3)c(-c3ccsc3)c(Cl)nc12` [Example 44] it is 2.90. Same read-out and setting: to `COCCNc1c(-c2ccsc2)c(Cl)nc2c(C#N)cnn12` [Example 45] belongs 2.94. The same measure, in the same setting: to `CCCN(CC1CC1)c1c(-c2ccsc2)c(Cl)nc2c(C#N)cnn12` [Example 47] belongs 4.51; to `CC1CN(c2c(-c3ccsc3)c(Cl)nc3c(C#N)cnn23)CC(C)O1` (stereo not shown) [Example 48], 3.53; to `N#Cc1cnn2c(N3CCCCC3)c(-c3ccsc3)c(Cl)nc12` [Example 49], 3.58. `COCCN(C)c1c(-c2ccsc2)c(Cl)nc2c(C#N)cnn12` [Example 51] displayed a logP of 3.17.

In turn, `CCN(CCC#N)c1c(-c2ccsc2)c(Cl)nc2c(C#N)cnn12` [Example 52] had a logP of 2.98.

As a reminder, the chromatographic logP is lipophilicity estimated from chromatographic retention. Compound `N#Cc1cnn2c(Cl)c(-c3ncccc3C(F)(F)F)c(Cl)nc12` [Example 65, 3-cyano-5,7-dichloro-6-(3-trifluoromethyl-pyridin-2-yl)-pyrazolo-[1,5-a]pyrimidine] registered a chromatographic logP of 2.68. Same read-out and setting: to `N#Cc1cnn2c(O)c(-c3ncccc3C(F)(F)F)c(O)nc12` [Example 68, 3-cyano-6-(3-trifluoromethyl-pyridin-2-yl)-pyrazolo[1,5-a]pyrimidin-5,7-diol] belongs 0.29; to `CC1CCN(c2c(-c3ncncc3Cl)c(Cl)nc3c(C=O)cnn23)CC1` [Example 74, 5-chloro-6-(5-chloro-pyrimidin-4-yl)-3-formyl-7-(4-methyl-piperidin-1-yl)-pyrazolo[1,5-a]-pyrimidine], 3.04. Same read-out and setting: to `C=Cc1cnn2c(N3CCC(C)CC3)c(-c3ncncc3Cl)c(Cl)nc12` [Example 75] belongs 4.7.
